Data on eight molecules can be found in US8492409B2, “1-substituted pyridyl-pyrazolyl amide compounds and uses thereof” (Sinochem Corporation, priority 2008, dated 2013).

The test system of assay [1] is beet armyworm (Laphygma exigua Hubner). In words: Test against beet armyworm (leaf disc spray). Format: in vivo. The note with it: Spodoptera exigua, foliar, 96 h, after 96 h; for mortality at 10 ppm / mortality at 1 ppm: third instar; for mortality at 0.3 ppm / mortality at 0.6 ppm: parallel test. As for the experimental part:
(§1) According to the solubility of test compounds, the compounds are dissolved in acetone or dimethyl sulfoxide, and then diluted with 0.1% aqueous solution of Tween 80 to form 50 ml test liquid, the content of acetone or dimethyl sulfoxide in the total solution is not more than 10%.
The cabbage leaves were perforated to get 1 cm diameter leaf discs by the hole puncher. Certain concentrations of test compounds were sprayed on both sides of the discs at the spray volume of 0.5 ml by Airbrush. Eight test insects (third instar) were introduced on each treatment after drying. Each treatment repeated 3 times. The treated discs were placed in a chamber of 24° C., 60%-70% relative humidity, no light. After 96 h, the number of surviving insects was investigated and the mortality was calculated.

Assay [2] has as its system tomato late blight (Phytophthora infestans). Description: microbe, parasite or virus in culture. Format: cell-based. The note with it: 240 h, read-out: control efficiency against tomato late blight (rate of fungi inhibition).
Assay [3] has as its system cucumber anthracnose (Colletotrichum lagenarium, CA). Description: Fungicidal activity test against cucumber anthracnose in vivo. The note with it: 400 ppm spray on potted cucumber seedlings; visual assessment after 5 days.
Assay [4] concerns Diamondback moth (Plutella xylostella). In words: Test against diamondback moth (cabbage leaf disc dip). The note with it: foliar, third instar, after 72 h. Format: in vivo. As for the experimental part:
as §1
The leaves of cabbage grown in greenhouse were chosen, removed the surface waxy layer and perforated to get 2 cm diameter leaf discs by the hole puncher. The discs were dipped in a solution of certain concentrations of test compounds for 10 seconds, dried and placed in 9 cm diameter Petri dish. Eight regular health insects (third instar) were introduced on each treatment. Each treatment was repeated for 4 times. The pure water was set as CK. The treated discs were placed in a chamber of 24° C., 60%-70% relative humidity and day light. After 72 h, the number of surviving insects was investigated and the mortality was calculated.

The test system of assay [5] is army worm (Mythimna separata). Description: Test against army worm (corn leaf dip). Format: in vivo. The note with it: foliar, third instar, after 72 h. As for the experimental part: as §1
The middle part of fresh corn leaves were chosen and cut into 3 cm sects. The sects were dipped into the solution of certain concentration of test compounds for 10 seconds, dried and placed in 9 cm diameter Petri dish. Eight regular health insects (third instar) were introduced on each treatment. Each treatment was repeated for 4 times. The pure water was set as CK. The treated discs were placed in a chamber of 24° C., 60%-70% relative humidity and day light. After 72 h, the number of surviving insects was investigated and the mortality rates were calculated.

Assay [6] concerns striped stem borer (Chilo suppressalis (Walker)). Description: Test against striped stem borer (artificial feed film). Format: in vivo. The method, then: as §1
The 6 well culture plates were chosen, 5 mL artificial feed was added into each well. After the feed solidified, 0.2 mL solution of certain concentrations of test compounds was added into per well with a continuous sampler and made the uniform film in the feed surface. Eight regular health insects (second instar) were introduced on each treatment after drying. Each treatment was repeated for 4 times. The pure water was set as CK. The treated discs were placed in a chamber of 24° C., 60%-70% relative humidity and day light. After 72 h, the number of surviving insects was investigated and the mortality was calculated.

In assay [7] the test system is rice leaf folder (Cnaphalocrocis medinalis Guenee). Description: Field test against rice leaf folder. Format: in vivo. The note with it: 168 h, spray 450 L/ha, after 7 d. As for the experimental part:
A certain concentrations of test compounds were sprayed on leaves at the time of hatching peak of rice leaf folder. Spay volume was 450 L/ha. The section area of rice was 32 m^2. Each treatment was repeated for 3 times. After 7d, the number of surviving insects was investigated and the mortality was calculated.

Assay [8] deals with armyworm (Mythimna seperata). The settings on record: 50 ppm; cited from earlier work.
Assay [9] deals with fall armyworm (Spodoptera frugiperda). The settings on record: 10 ppm; cited from earlier work.
Setting [10] is: 10 ppm, read-out: mortality against beet armyworm.
[11] abbreviates: 0.3 ppm, Table 3, read-out: Mortality (%) against beet armyworm.
Where [12] appears, read: parallel test, Table 5, after 72 h.

Where two headings read alike, the source gives them in different places. Some results are limits rather than exact numbers.

A word on the mortality: it is the share of the test organisms that died. In general, inhibition refers to the share of the control response that was lost under treatment. Consider `CNC(=O)c1cc(Cl)cc(C)c1NC(=O)c1cc(C)nn1-c1ncc(Cl)cc1Cl` [Compound 1], for which the mortality at 10 ppm in assay [1] (read-out: mortality against beet armyworm, 10 ppm) is no less than 90%. Further, the inhibition at 25 ppm in [2] is greater than 90%. Besides, the “protective controlling effect against cucumber anthracnose” value in assay [3] is listed as “more than 90%”.

In turn, `CCNC(=O)c1cc(Cl)cc(C)c1NC(=O)c1cc(Br)nn1-c1ncc(Cl)cc1Cl` [Compound 22] yielded a mortality at 1 ppm in assay [1] of no less than 90%. For the same molecule, the mortality at 10 ppm in assay [1] (setting [10]) is no less than 90%.

On to `CNC(=O)c1cc(Cl)cc(Cl)c1NC(=O)c1cc(Br)nn1-c1ncc(Cl)cc1Cl` [Compound 19], for which the mortality at 0.8 ppm in assay [4] was greater than 90%. Moreover, the mortality at 0.3 ppm in assay [1] (setting [11]) was found to be 87.5%. In [1], this molecule had a mortality at 1 ppm of no less than 90%. Also, the mortality at 10 ppm in assay [1] (setting [10]) is no less than 90%. In addition, in assay [5], the mortality at 0.4 ppm is no less than 90%. In [6] (setting [12]), this molecule registered a mortality at 5 ppm of 90% and a mortality at 10 ppm of 100%. Besides, the mortality at 10 ppm in [6] (second instar, after 72 h) was no less than 90%. Moreover, in assay [7], the mortality at 30 g/ha was determined as 56% and the mortality at 60 g/ha was found to be 63%.

In the case of `CNC(=O)c1cc(Cl)cc(C)c1NC(=O)c1cc(C(F)(F)F)nn1-c1ncc(Cl)cc1Cl` [Compound 3], the mortality at 1 ppm in assay [1] was no less than 90%. For the same molecule, the mortality at 10 ppm in assay [1] (setting [10]) was no less than 90%.

Take `CNC(=O)c1cc(Cl)cc(C)c1NC(=O)c1cc(Br)nn1-c1ncc(Br)cc1Cl` [KC1, reference compound]: the “insecticidal activity against armyworm” value in [8] is “highly effective”. In addition, the mortality at 0.3 ppm was determined as 0% in assay [1] (read-out: Mortality (%) against beet armyworm, 0.3 ppm, Table 3) and 12.5% in [1] (read-out: Mortality (%) against beet armyworm, 0.3 ppm, Table 4). In addition, the mortality at 0.6 ppm in assay [1] (read-out: Mortality (%) against beet armyworm, 0.6 ppm, Table 4) was determined as 75.5%.

As for `CNC(=O)c1cc(Cl)cc(C)c1NC(=O)c1cc(Br)nn1-c1ncccc1Cl` [KC2, chlorantraniliprole, reference compound], in [6] (setting [12]), the mortality at 5 ppm was 60% and the mortality at 10 ppm was 90%. Moreover, the “insecticidal activity against fall armyworm” value in [9] is “highly effective”. In assay [7], this molecule displayed a mortality at 30 g/ha of 34% and a mortality at 60 g/ha of 52%.

Regarding `CNC(=O)c1cc(Cl)cc(C)c1NC(=O)c1cc(Br)nn1-c1ncc(Cl)cc1Cl` [Compound 18], the mortality at 0.3 ppm in assay [1] (setting [11]) came out at 50%; in [1] (0.3 ppm, Table 4, read-out: Mortality (%) against beet armyworm) it was 62%. In addition, the mortality at 0.6 ppm in assay [1] (0.6 ppm, Table 4, read-out: Mortality (%) against beet armyworm) is 100%. In addition, the mortality at 1 ppm in [1] is no less than 90%. The mortality at 10 ppm in assay [1] (setting [10]) was no less than 90%; in [6] (second instar, after 72 h) it was no less than 90%. In assay [5], the mortality at 0.4 ppm was no less than 90%.

Regarding `Cc1cc(Cl)cc(C(N)=O)c1NC(=O)c1cc(Br)nn1-c1ncc(Cl)cc1Cl` [Compound 15], the mortality at 10 ppm in [1] (setting [10]) is no less than 90%.
